Data taken from article PMC11335985, “Radiosynthesis and preclinical evaluation of a ^68Ga-labeled tetrahydroisoquinoline-based ligand for PET imaging of C-X-C chemokine receptor type 4 in an animal model of glioblastoma” (EJNMMI Radiopharmacy and Chemistry, 2024).

Target: T1, CXCR4 (Homo sapiens, UniProt P61073)
T1 construct: full-length endogenous receptor on intact Jurkat T cells, untagged
Experiment: inhibition of CXCL12-AF647 binding to intact Jurkat cells, flow cytometry
Assay type: cell-based
Conditions: competition with 2.9 nM CXCL12-AF647; HBSS, 20 mM HEPES, 0.2% BSA, pH 7.4, RT; 15 min preincubation, 30 min with tracer; n = 3; chelator without gallium
From the text: inhibition of CXCL12-AF647 binding to intact Jurkat cells, flow cytometry on CXCR4

T1 sequence (P61073 whole entry): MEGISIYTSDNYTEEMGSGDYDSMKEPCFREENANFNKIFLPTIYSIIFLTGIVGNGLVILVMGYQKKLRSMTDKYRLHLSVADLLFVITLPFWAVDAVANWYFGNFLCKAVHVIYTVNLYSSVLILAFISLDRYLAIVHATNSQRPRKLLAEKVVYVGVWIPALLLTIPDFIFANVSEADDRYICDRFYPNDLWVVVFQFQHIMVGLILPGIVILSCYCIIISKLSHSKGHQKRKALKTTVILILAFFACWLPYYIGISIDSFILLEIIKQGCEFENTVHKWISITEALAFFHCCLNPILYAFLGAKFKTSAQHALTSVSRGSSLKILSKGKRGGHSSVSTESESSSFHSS

With `O=C(O)CN1CCN(CC(=O)O)CCN(C(CCC(=O)NCc2ccc(NC(=S)NCCCCN(C[C@H]3Cc4ccccc4CN3)[C@H]3CCCc4cccnc43)cc2)C(=O)O)CCN(CC(=O)O)CC1` (stereo partly shown) [TD-01] the IC50 was 36.5 ± 1.4 nM.
